Measured values published in patent US8114895B2, “Use of bipyridine compound ‘Caerulomycin A’ derivatives and analogs thereof as immunosuppressive agents” (Council of Science and Industrial Research, priority 2005, dated 2012).
Entries after “also recorded” stand apart in the source; their conditions may differ.

Key:
[1] = test system: BALB/c splenocytes (responder cells) and γ-irradiated C57BL/6J splenocytes (stimulator cells); experiment: Mixed lymphocyte reaction (MLR), [3H]-thymidine incorporation; type: cell-based, mice
Description: The MLR was performed in 96-well tissue culture plates, with each well containing 4×10^5 BALB/c splenocytes (responder cells) and 4×10^5 γ-irradiated (3000R) C57BL/6J splenocytes (stimulator cells) in 200 μl RPMI/FCS-10% medium and with various concentrations of Caerulomycin A (1-0.0125 μg/ml) and Cyclosporin A (0.0125-10 μg/ml). The control cultures consisting of BALB/c splenocytes in medium alone, γ-irradiated C57BL/6J splenocytes and BALB/c splenocytes+γ-irradiated C57BL/6J splenocytes were also kept. After 4 days, the cultures were pulsed with 1 μCi of [^3H]-thymidine and harvested 16 h later by a Skatron cell harvester. Radioactivity incorporated was measured by liquid scintillation counting and data expressed as mean counts per minute (cpm).
Examples establishing the role of Caerulomycin A [isolated from a novel species of Actinoalloteichus] in inducing immunosuppression based on the following: • Splenocytes of BALB/c mice were stimulated with either ConA (1 μg/ml and 2 μg/ml) or LPS (5 μg/ml and 10 μg/ml) and were cultured with different concentrations of Caerulomycin A (0.0003-0.1 μg/ml). […] Radioactivity incorporated was measured by liquid scintillation counting. • Antigen ovalbumin (100 μg/ml) emulsified in Freund's complete adjuvant was injected in a group consisting of 5 BALB/c mice. […] Radioactivity incorporated was measured by liquid scintillation. […]

[2] = test system: Splenocytes of BALB/c mice; experiment: Proliferation of splenocytes stimulated with T cell and B cell mitogens (ConA, LPS); type: cell-based
Description: Splenocytes of BALB/c mice were cultured (5×10^4 cells/well) in 200 μl RPMI/FCS-10% medium and stimulated with different concentrations of either ConA (1 μg/ml and 2 μg/ml) or LPS (5 μg/ml and 10 μg/ml) and Caerulomycin A (0.0003-0.1 μg/ml). The control cultures consisting of splenocytes incubated with medium alone, ConA and DMSO. After 48 h, the cultures were pulsed with 0.5 μCi of [^3H]-thymidine and harvested 14 h later by automatic cell harvester (Skatron, Tranby, Norway). Radioactivity incorporated was measured by liquid scintillation counting and data are expressed as mean counts per minute (cpm).
Examples establishing the role of Caerulomycin A [isolated from a novel species of Actinoalloteichus] in inducing immunosuppression based on the following: • Splenocytes of BALB/c mice were stimulated with either ConA (1 μg/ml and 2 μg/ml) or LPS (5 μg/ml and 10 μg/ml) and were cultured with different concentrations of Caerulomycin A (0.0003-0.1 μg/ml). After 48 h, the cultures were pulsed with 0.5 μCi of [^3H]-thymidine and harvested 14 h later by automatic cell harvester. Radioactivity incorporated was measured by liquid scintillation counting. • Antigen ovalbumin (100 μg/ml) emulsified in Freund's complete adjuvant was injected in a group consisting of 5 BALB/c mice. […] Radioactivity incorporated was measured by liquid scintillation. The culture supernatants were collected after 48 h and cytokines were measured by ELISA. • Immunosuppressive effect of different doses of Caerulomycin A was monitored on naïve CD4^+ T cells, antigen reactive CD4^+ T cells, Th2 clone and Th1 hybridoma. […] Radioactivity incorporated was measured by liquid scintillation. • Immunosuppressive effect of Caerulomycin A on MLR reaction. […] After 4 days, the cultures were pulsed with 1 μCi of [^3H]-thymidine and harvested 16 h later and radioactivity incorporated was measured by liquid scintillation counting. • In vivo immunosuppressive effect of Caerulomycin A on the proliferation of T cells. […] CD28 and CTLA-4 expression was detected by flowcytometry on the surface of resting and ConA activated CD4^+ T cells. […]

OVA-specific T cells = experiment: Cytokine secretion by OVA-primed splenocytes (ELISA); type: cell-based, BALB/c mice; details: OVA 200 μg/ml, supernatants after 48 h
Description: OVA (2 mg/ml) was dissolved in PBS (0.01 M, pH 7.2) and emulsified in Freund's complete adjuvant (FCA). Emulsion (100 μl) was then injected intraperitoneally in a group consisting of 5 BALB/c mice. The control group was injected with PBS alone. After seven days, mice were sacrificed and splenocytes were pooled and used for proliferation and cytokine assays. Splenocytes (5×10^5 cells/well) were cultured with OVA (200 μg/ml) in 200 μl RPMI/FCS-10% medium and with various concentrations of Caerulomycin A (0.0003-0.1 μg/ml). The control cultures consisting of splenocytes incubated with different concentrations of Caerulomycin A (no OVA), OVA and medium were also kept. The culture supernatants were collected after 48 h and cytokines were measured by ELISA.

B cells = experiment: Secretion of antibodies
[3] = Funk and Divekar 1959; cited from earlier work

SMILES: COc1cc(/C=N/O)nc(-c2ccccn2)c1 [Caerulomycin A, (E)-4-methoxy-2,2′-bipyridine-6-carbaldehyde oxime]
- MLR reaction (proliferation) ([1]; Caerulomycin A 1-0.0125 μg/ml, Cyclosporin A 0.0125-10 μg/ml, 4 days): dose dependent inhibition; also recorded: substantially reduced the MLR reaction
- potency in inhibiting MLR relative to Cyclosporin A (CsA) ([1]; similar amount of inhibition of proliferation at a lesser dose than CsA): 10 fold
- proliferation of mitogen stimulated cells at the effective doses ([2]; Caerulomycin A 0.05 and 0.1 μg/ml): potent inhibition
- proliferation of ConA stimulated cells ([2]; ConA 1.0 and 2.0 μg/ml, Caerulomycin A 0.0003-0.1 μg/ml, 48 h): significant decrease
- proliferation of cells stimulated with LPS ([2]; LPS 5 and 10 μg/ml, Caerulomycin A 0.0003-0.1 μg/ml, 48 h): suppress the proliferation
- secretion of IFN-γ (OVA-specific T cells; Caerulomycin A 0.05-0.1 μg/ml): significantly suppressed the secretion
- production of IL-10 (OVA-specific T cells): failed to induce any change
- secretion of IgG1 type of antibodies (B cells): inhibited the secretion
- secretion of IgG2a type of antibodies (B cells): inhibited the secretion
- antibacterial activity [3]: mild antibacterial activity
- antifungal activity [3]: strong antifungal activity
